The nature of series [1]: Example 2: deamidation at 25°C with histidine or histidine derivatives, desamido content by IE-HPLC. Type of series: physicochemical. The conditions noted are these: compared to phosphate at pH 6.5. The procedure: The rate of deamidation was examined at 25°C for hGH preparations comprising 6 IU hGH at pH 6.5 and at pH 7.3 in 5 mM, 10 mM and 100mM His buffer as compared to 8 mM phosphate buffer at the same pH. Furthermore, the histidine derivatives His-Gly, His-Ala, His-Leu, His-Lys, His-Phe, His-Ser, Histidine methyl ester, histidinol, imidazole, imidazole-4-acetic acid and histamine were tested.
The hGH preparations were prepared by dissolving 20 mg hGH in 10 ml of histidine buffer of the desired strength prepared by dissolving 7.8 mg, 15.5 mg and 155.2 mg, respectively, of histidine in 10 ml deionized water containing 0.9% (v/v) of benzyl alcohol and adding 0.1 N hydrochloric acid to achieve the stated pH.
The hGH formulations stated in Table 2 below were stored at 25°C and analyzed for their desamido content after 14 and 30 days by IE-HPLC.

A short description of series [2]: Stability statements of the general description (deamidation, stability in solution). Type of series: physicochemical. The following applies: addition of the solvent to the hGH preparation.

Consider `Cc1cccc(O)c1` [m-cresol], for which the “effect on de-amidation / stabilization (in words)” value in series [1] was “no influence”.
Regarding `CCO` [10% ethanol, ethanol], the “reduction in the deamidation” value in series [2] is reported as “more than 20%”.
With `CO` [5% methanol, methanol], the “reduction in the deamidation” value in series [2] is “more than 20%”.
For the molecule `OCc1ccccc1` [benzyl alcohol], the “effect on de-amidation / stabilization (in words)” value in series [1] is listed as “no influence”.

Source of the values: patent publication EP0618807B1, “A STABILIZED PHARMACEUTICAL FORMULATION COMPRISING GROWTH HORMONE AND HISTIDINE” (NOVO NORDISK A/S, priority 1991, dated 1993).
